Reference: paper PMC9181938, “Fluorinated Analogues of Lepidilines A and C: Synthesis and Screening of Their Anticancer and Antiviral Activity” (Molecules, 2022)
Counter-ions that a name gives are not always drawn. Like-named read-outs stand apart in the source and are kept apart here.

Experiments:
[1] = test system: Human parainfluenza virus type 3 (HPIV-3); assay: Antiviral screening at 10 µM; assay type: cell-based; details: Human respirovirus 3, antiviral screening, HPIV-3-infected cells, read-out: Cell line (viability %) HPIV-3
Procedure: (§1) Antiviral properties of compounds 1a, 1c, 1a[PF6], 1c[PF6], 9b[PF6], 9c[PF6], 10a–10d, 2a, and 2b were assessed against five viruses: Human herpesvirus 1 (HSV-1, VR-539), Human parainfluenza virus type 3 (HPIV-3, VR-93), Human adenovirus 5 (AdV5, VR-5), Human herpesvirus 5 (HCMV, VR-977), and Encephalomyocarditis virus (EMCV, VR-1479). Viruses were purchased from the American Type Culture Collection (ATCC, Manassas, VA, USA).
(§2) All tested compounds were dissolved in DMSO (dimethyl sulfoxide, Sigma-Aldrich, Darmstadt, Germany) and then suspended in Minimum Essential Medium (MEM; Sigma-Aldrich, Darmstadt, Germany) supplemented with 2% heat-inactivated fetal bovine serum (FBS; Sigma-Aldrich, Darmstadt, Germany), 2 mM L-glutamine (Sigma-Aldrich, Darmstadt, Germany), and 100 units/mL penicillin G with […] streptomycin (Sigma-Aldrich, Darmstadt, Germany).
(§3) Vero, LLC-MK2, NCTC clone 929, MRC-5, and HeLa cells were propagated in Minimum Essential Medium (MEM; Sigma-Aldrich, Darmstadt, Germany) supplemented with 10% heat-inactivated fetal bovine serum (FBS; Sigma-Aldrich, Darmstadt, Germany) and 100 units/mL penicillin G with […] streptomycin (Sigma-Aldrich, Darmstadt, Germany). Upon reaching 80–90% confluency, cells were harvested with 0.25% trypsin in 1 mM EDTA (Life Technologies, Warsaw, Poland) and seeded onto 96-well microplates at 2 × 10^5 cells/mL. After overnight incubation of cells at 37 °C in a humidified atmosphere containing 5% CO2, the culture medium was removed, and cells were inoculated with the respective virus solution in MEM supplemented with 2% FBS and antibiotics (HSV-1 MOI 0.005, 1000 virions/mL; HPIV-3 MOI 0.01, 2000 virions/mL; AdV5 MOI 0.005, 1000 virions/mL, EMCV MOI 0.005, 1000 virions/mL, HCMV 20 PFU (plaque forming units) per well). After a 1-h (HSV-1, HPIV-3, AdV5, and EMCV) or 2-h adsorption period (HCMV), the residual virus was removed, and the infected cells were further incubated with a 100 μL freshly prepared solution of tested compounds diluted with a maintenance medium supplemented with 2% FBS to obtain compound concentrations of 10 µM. The final concentration of DMSO in the medium was 0.1%. All experiments were carried out in triplicate. The cells monolayers were incubated with the compounds at 37 °C in a humidified atmosphere containing 5% CO2 until the typical cytopathic effect (CPE) was visible. Viral infection was evaluated by the MTT assay or plaque reduction assay (HCMV). After incubation with drugs, the cells were treated with 3-(4,5-dimethylthiazol-2-yl)-2,5-diphenyltetrazolium bromide dye solution (MTT, Sigma-Aldrich, Darmstadt, Germany) (25 μL, 5 mg/mL) for 2 h and lysed with solvent solution (100 μL) containing: DMF (Sigma-Aldrich, Darmstadt, Germany) (45 mL), SDS (Sigma-Aldrich, Darmstadt, Germany) (13.5 g), and distilled water (55 mL). After overnight incubation at 37 °C, the optical density at 550 nm and a reference wavelength of 670 nm were measured on a microplate spectrophotometer, Varioskan Lux (Thermo Fisher Scientific, Waltham, MA, USA). The number of HCMV plaques was counted under an inverted microscope Olympus IX73 (Olympus, Tokyo, Japan).

[2] = test system: Human adenovirus 5 (AdV5); assay: Antiviral screening at 10 µM; assay type: cell-based; details: Human mastadenovirus C, AdV5-infected cells, read-out: Cell line (viability %) AdV5
Procedure: as §1, §2, §3

[3] = test system: Human herpesvirus 1 (HSV-1); assay: Antiviral screening at 10 µM; assay type: cell-based; details: Human alphaherpesvirus 1, antiviral screening, HSV-1-infected cells, read-out: Cell line (viability %) HSV-1
Procedure: as §1, §2, §3

[4] = test system: Encephalomyocarditis virus (EMCV); assay: Antiviral screening at 10 µM; assay type: cell-based; details: Cardiovirus A, EMCV-infected cells, read-out: Cell line (viability %) EMCV
Procedure: as §1, §2, §3

[5] = Cytotoxicity screening at 10 µM (MTT); assay type: cell-based, Mus musculus; details: Mus musculus, NCTC clone 929 cells, read-out: Cell line (viability %) NCTC clone 929
[6] = Cytotoxicity screening at 10 µM (MTT); assay type: cell-based, Human; details: human, MRC-5 cells, read-out: Cell line (viability %) MRC-5
[7] = Cytotoxicity screening at 10 µM (MTT); assay type: cell-based, Cercopithecus aethiops; details: Cercopithecus aethiops, Vero cells, read-out: Cell line (viability %) Vero
[8] = Cytotoxicity screening at 10 µM (MTT); assay type: cell-based, Macaca mulatta; details: Macaca mulatta, LLC-MK2 cells, read-out: Cell line (viability %) LLC-MK2
[9] = test system: Human herpesvirus 5 (HCMV); assay: Antiviral screening at 10 µM, plaque reduction; assay type: cell-based; details: Human betaherpesvirus 5, antiviral screening, HCMV-infected cells, read-out: Cell line (viability %) HCMV
Procedure: as §1, §2, §3

[10] = Cytotoxicity screening at 10 µM (MTT); assay type: cell-based, Human; details: human, HeLa cells, read-out: Cell line (viability %) HeLa
[11] = test system: Human herpesvirus 5 (HCMV); assay: Antiviral activity assay (0.1–1000 µM), IC50, plaque reduction; assay type: cell-based; details: Human betaherpesvirus 5, 20 PFU/well
Procedure: as §1, with “1e–1g, 1e[PF6], 8a–8d,” for “1a, 1c, 1a[PF6], 1c[PF6], 9b[PF6], 9c[PF6], 10a–10d, 2a,”, “9a” for “2b”
as §2
(§4) Investigated cells were propagated in Minimum Essential Medium (MEM; Sigma-Aldrich, Darmstadt, Germany) supplemented with 10% heat-inactivated fetal bovine serum (FBS; Sigma-Aldrich, Darmstadt, Germany) and 100 units/mL penicillin G with […] streptomycin (Sigma-Aldrich, Darmstadt, Germany). After reaching 80–90% confluency, cells were harvested with trypsin (Life Technologies, Warsaw, Poland) and seeded into 96-well microplates at 2 × 10^5 cells/mL after overnight incubation of cells at 37 °C in a humidified atmosphere containing 5% CO2.
(§5) The culture medium was removed from confluent cells grown in 96-well microplates, and the cells were inoculated with virus solutions in MEM supplemented with 2% FBS and antibiotics (HSV-1 MOI 0.005, 1000 virions/mL; HPIV-3 MOI 0.01, 2000 virions/mL; AdV5 MOI 0.005, 1000 virions/mL; EMCV 0.005, 1000 virions/mL; HCMV 20 PFU/well (plaque-forming units per well). After a 1-h (HSV-1, HPIV-3, AdV5, and EMCV) or 2-h adsorption period (HCMV), residual viral particles were removed, and infected cells were further incubated with MEM supplemented with 2% FBS containing compound concentrations in the range from 0.1 to 1000 µM [38]. All experiments were carried out in triplicate. The cell monolayers were incubated with the investigated compounds at 37 °C in a humidified atmosphere containing 5% CO2 until a cytopathic effect (CPE) was visible. Viral infection was evaluated by the MTT assay (as described previously) or plaque reduction assay. HCMV plaques were counted under an inverted microscope, Olympus IX73 (Olympus, Tokyo, Japan). Antiviral activity was expressed as the concentration required to reduce the number of viral plaques to 50% of the control (virus-infected but untreated).

[12] = test system: Human parainfluenza virus type 3 (HPIV-3); assay: Antiviral activity assay (0.1–1000 µM), IC50; assay type: cell-based; details: Human respirovirus 3, HPIV-3, MOI 0.01; read-out: IC50 HPIV-3
Procedure: as §1, with “1e–1g, 1e[PF6], 8a–8d,” for “1a, 1c, 1a[PF6], 1c[PF6], 9b[PF6], 9c[PF6], 10a–10d, 2a,”, “9a” for “2b”
as §2, §4, §5

[13] = test system: Human adenovirus 5 (AdV5); assay: Antiviral activity assay (0.1–1000 µM), IC50; assay type: cell-based; details: Human mastadenovirus C
Procedure: as §1, with “1e–1g, 1e[PF6], 8a–8d,” for “1a, 1c, 1a[PF6], 1c[PF6], 9b[PF6], 9c[PF6], 10a–10d, 2a,”, “9a” for “2b”
as §2, §4, §5

[14] = test system: Human herpesvirus 1 (HSV-1); assay: Antiviral activity assay (0.1–1000 µM), IC50; assay type: cell-based; details: Human alphaherpesvirus 1; HSV-1, MOI 0.005
Procedure: as §1, with “1e–1g, 1e[PF6], 8a–8d,” for “1a, 1c, 1a[PF6], 1c[PF6], 9b[PF6], 9c[PF6], 10a–10d, 2a,”, “9a” for “2b”
as §2, §4, §5

[15] = test system: Encephalomyocarditis virus (EMCV); assay: Antiviral activity assay (0.1–1000 µM), IC50; assay type: cell-based; details: Cardiovirus A, MOI 0.005, read-out: IC50 EMCV
Procedure: as §1, with “1e–1g, 1e[PF6], 8a–8d,” for “1a, 1c, 1a[PF6], 1c[PF6], 9b[PF6], 9c[PF6], 10a–10d, 2a,”, “9a” for “2b”
as §2, §4, §5

[16] = Cytotoxicity MTT assay (0.1–1000 µM), CC50; assay type: cell-based, Human; details: human, HeLa cells

Compound	viability at 10 µM [1] [%]	viability at 10 µM [2] [%]	viability at 10 µM [3] [%]	viability at 10 µM [4] [%]	viability at 48 h, 10 µM [5] [%]	viability at 48 h, 10 µM [6] [%]	viability at 48 h, 10 µM [7] [%]	viability at 48 h, 10 µM [8] [%]	viability at 10 µM [9] [%]	viability at 48 h, 10 µM [10] [%]	melting point [°C]	IC50 [11] [µM]	IC50 [12] [µM]	IC50 ([13]; AdV5, MOI 0.005, read-out: IC50 AdV5) [M]	IC50 [14] [µM]	IC50 [15] [µM]	CC50 at 48 h ([16]; MTT, 48 h, read-out: CC50 Cancer Cell Lines HeLa) [µM]	CC50 at 48 h ([16]; Table S2, range 0.1-1000 µM, read-out: Cell line (CC50 M) HeLa) [µM]	IC50 ([13]; Table S4, range 0.1-1000 µM, AdV5, read-out: IC50 (M) AdV5) [M]
COc1cccc(Cn2c(C)c(C)n(Cc3ccccc3)c2=S)c1 [Compound 10b]	7.9	39.5	16.5	8.1	59	100	29.1	9.1	1.9	13.3									
COc1cccc(CO[n+]2cn(Cc3cccc(C(F)(F)F)c3)c(-c3ccccc3)c2-c2ccccc2)c1.[Br-]											132 to 134								
Cc1cc(C)cc(CO[n+]2cn(Cc3cccc(C(F)(F)F)c3)c(-c3ccccc3)c2-c2ccccc2)c1.[Br-]											156 to 158								
c1ccc(Cn2c[n+](Cc3ccccc3)c(-c3ccccc3)c2-c2ccccc2)cc1 [9b[PF6]]	12	13.9	11.7	9.3	4.1	12.8	6.7	8	6.3	6.8									
Cc1c(C)[n+](Cc2ccccc2)cn1Cc1cccc(F)c1 [1e[PF6], 1-Benzyl-3-(3-fluorobenzyl)-4,5-dimethylimidazolium hexafluorophosphate]												> 150	> 150	> 8e-08	> 56.3	> 148			
FC(F)(F)c1cccc(Cn2c[n+](OCc3ccccc3)c(-c3ccccc3)c2-c2ccccc2)c1.[Br-]											107 to 110								
COc1cccc(Cn2c(-c3ccccc3)c(-c3ccccc3)n(Cc3ccccc3)c2=S)c1 [Compound 10d]	10.6	68	14.6	8.5	91.5	96.8	95.8	53.6	1.9	74							< 400	318 ± 47.5	> 0.000318
c1c[n+](OC23CC4CC(CC(C4)C2)C3)cn1OC12CC3CC(CC(C3)C1)C2 [Compound 2b]	8.7	17.1	14.1	9.6	6.6	12.7	15.2	7.8	2.8	7.5									
S=c1n(Cc2ccccc2)c(-c2ccccc2)c(-c2ccccc2)n1Cc1ccccc1 [Compound 10c]	10.9	16	14.7	8.5	35.5	73.8	11.4	15.8	7.1	7.8									
Cc1c(C)[n+](Cc2ccccc2)cn1Cc1cccc(F)c1 (as salt: phosphate) [1e[PF6]] [1-Benzyl-3-(3-fluorobenzyl)-4,5-dimethylimidazolium hexafluorophosphate]											110 to 112								
c1c[n+](C23CC4CC(CC(C4)C2)C3)cn1C12CC3CC(CC(C3)C1)C2 [Compound 2a, 1,3-diadamantyl imidazolium bromide, reference compound]	8.3	50.2	13.9	7.1	8.9	73.7	7.9	7.8	9.7	23									
COc1cccc(Cn2c[n+](Cc3ccccc3)c(-c3ccccc3)c2-c2ccccc2)c1 [9c[PF6]]	12.8	14.4	13.3	9.4	6.5	12.6	6.6	7.6	1.9	7.1									
